Assay results: ChEMBL document CHEMBL1201862, “PubChem BioAssay data set” (2004)
The source made the active and inactive calls.

Legend:
[1] = system: Streptococcus sp. 'group A'; experiment: growth inhibition of control SK(-) GAS strain, dose response, counter-screen for streptokinase expression inhibitor project, luminescence, kanamycin, BacTiterGlo, confirmation (AID 1900); type: functional, organism-based
[2] = system: BJ; experiment: cytotoxicity toward BJ-TERT fibroblasts, dose response, cell-based, RAS-independent, luminescence (AID 1933); type: functional; conditions: Homo sapiens
[3] = biological target: T1, Streptokinase A (Streptococcus pyogenes serotype M1, UniProt P10520); experiment: S. pyogenes streptokinase expression inhibitors, potency, dose response, plasminogen activation absorbance, OD405 (AID 1914); type: functional, Streptococcus pyogenes M1 GAS;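 also: secreted streptokinase activity via plasminogen activation per viability signal from cell pellet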
T1 sequence (P10520 whole entry): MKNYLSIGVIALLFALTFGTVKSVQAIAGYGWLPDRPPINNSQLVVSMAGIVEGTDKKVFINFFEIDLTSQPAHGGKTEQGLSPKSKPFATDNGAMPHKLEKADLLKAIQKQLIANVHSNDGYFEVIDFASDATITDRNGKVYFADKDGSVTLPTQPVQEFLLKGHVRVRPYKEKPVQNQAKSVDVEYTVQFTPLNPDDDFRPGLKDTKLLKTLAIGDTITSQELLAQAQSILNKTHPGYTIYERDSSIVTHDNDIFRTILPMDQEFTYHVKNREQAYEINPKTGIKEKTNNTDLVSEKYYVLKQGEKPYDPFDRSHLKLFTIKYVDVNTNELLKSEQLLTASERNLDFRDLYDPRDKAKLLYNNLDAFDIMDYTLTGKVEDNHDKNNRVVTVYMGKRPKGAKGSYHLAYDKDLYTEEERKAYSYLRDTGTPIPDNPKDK

[4] = system: BJ; experiment: cells; type: functional, cell-based; conditions: Homo sapiens
[5] = system: BJ; experiment: cytotoxicity toward BJ-TERT-LT-ST fibroblasts, dose response, cell-based, RAS-independent, luminescence (AID 1935); type: functional; conditions: Homo sapiens;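 also: BJ fibroblasts immortalized with TERT plus LT and ST oncogenes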
[6] = cytotoxicity toward DRD oncogenic fibroblasts, dose response, cell-based, non-viral oncogenic, luminescence (AID 1934); type: functional; conditions: Homo sapiens
[7] = system: Streptococcus; experiment: Group A Streptococcus viability loss, dose response, counter-screen for streptokinase expression inhibitor project, luminescence, BacTiterGlo (AID 1915); type: functional, organism-based;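 also: potency for reduction of bacterial viability or growth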
[8] = cytotoxicity in HEK-293T cells, dose response, cytotoxicity control for BCR NF-kB inhibitor project, luminescence, B-cell screen hits (AID 489021); type: functional, cell-based;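 also: HEK-293T cells carrying an NF-kB luciferase reporter; cells exposed to compound for about 14 hours before viability readout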
[9] = system: INS1; experiment: beta cell apoptosis inhibitors, cytokine rescue, dose response, luminescence, retest (AID 449756); type: functional, cell-based; conditions: Rattus norvegicus;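 also: cell death triggered by IL-1 beta plus TNF-alpha plus IFN-gamma mixture; protective hits raise ATP signal compared with cytokine alone wells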
[10] = Shn3 3'UTR reporter inhibitors, dose response, cell-based, Clone20 osteoblasts, firefly luciferase, cherry-picked (AID 624132); type: functional;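 also: firefly luciferase luminescence from reporter carrying the Shn3 3'UTR in osteoblasts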
[11] = HepG2 cell cytotoxicity, dose response, cytotoxicity control for Shn3 inhibitor project, CellTiter-Glo, cherry-picked (AID 624134); type: functional, cell-based
[12] = control 3'UTR Renilla luciferase suppression, dose response, counter-screen for Shn3 inhibitor project, cell-based, Clone20-Shn3RL, cherry-picked (AID 624133); type: functional
[13] = miR-122 activators in hepatoma reporter cells, dose response, cell-based, Huh7 psiCHECK-miR122, Renilla luciferase, cherry-picked (AID 651956); type: functional;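 also: huh7 hepatoma cells stably carrying a psiCHECK-2 miR-122 sensor plasmid; renilla luciferase signal reporting endogenous miR-122 activity after 48 h compound exposure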
[14] = inhibitors of PGC1a acetylation in cells, dose response, cell-based, cherry-picked samples (AID 720514); type: functional;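 also: potency may reflect raised or lowered acetylation signal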
[15] = HEK293T cytotoxicity, dose response, cytotoxicity control for miR-122 modulator project, cell-based, inhibitor set, cherry-pick, set 2 (AID 720697); type: functional
[16] = HEK293T cytotoxicity, dose response, cytotoxicity control for miR-122 modulator project, cell-based, activator set, cherry-pick (AID 720690); type: functional;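 also: HEK293T human cells scored for general mammalian cytotoxicity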
[17] = biological target: T2, Ubiquitin-conjugating enzyme E2 N (Homo sapiens, UniProt P61088); type: functional;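 also: Dose-response confirmation in a TR-FRET assay detecting UBC13-driven polyubiquitin chain formation, inhibition measured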
T2 sequence (P61088 whole entry): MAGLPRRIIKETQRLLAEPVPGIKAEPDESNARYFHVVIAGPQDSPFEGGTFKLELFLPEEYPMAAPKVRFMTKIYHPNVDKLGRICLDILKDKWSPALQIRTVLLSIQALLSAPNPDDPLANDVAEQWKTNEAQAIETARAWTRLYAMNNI

[18] = biological target: Major prion protein (Homo sapiens, UniProt P04156); type: functional, cell-based
[19] = cells
[20] = P. falciparum 3D7-ScDHODH growth inhibitors, dose response, SYBR Green, dry powder samples (AID 1159570); type: functional, cell-based;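 also: parasite growth measured after 72 hours of compound exposure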
[21] = HepG2 cell cytotoxicity, dose response, cytotoxicity control, plate reader, dry powder samples (AID 1159569); type: functional, cell-based;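 also: inhibitor potency with signal falling toward the positive control level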
[22] = P. falciparum Dd2 growth inhibitors, dose response, SYBR Green, cherry-picked samples (AID 1159567); type: functional, cell-based
[23] = P. falciparum Dd2 growth inhibitors, dose response, SYBR Green, dry powder samples (AID 1159566); type: functional, cell-based;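 also: potency for growth inhibition with lower SYBR green DNA signal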
[24] = HepG2 cell cytotoxicity, dose response, cytotoxicity control, cherry-picked samples (AID 1159577); type: functional, cell-based
[25] = P. falciparum ATP4 D1247Y mutant growth inhibitors, dose response, NITD609-resistant line, SYBR Green, dry powder (AID 1159571); type: functional, cell-based;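 also: parasites synchronized at ring stage by sorbitol before testing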

**Q.** For `COc1cccc(N2CCN(c3[nH]cnc4c5cc(F)ccc5nc3-4)CC2C)c1` (configuration not stated), which EC50 [1] is on record?
**A.** Its EC50 is 8 µM (active).

**Q.** And the EC50 [2]?
**A.** Its EC50 is 6.14 µM (inconclusive).

**Q.** What about the EC50 [3] of the same compound?
**A.** The EC50 was 15.3 µM (active).

**Q.** What about the EC50 [4] of the same compound?
**A.** Its EC50 is 9.04 µM (active).

**Q.** And the EC50 [5]?
**A.** The EC50 was 8.16 µM (active).

**Q.** What about the EC50 [6] of the same compound?
**A.** Its EC50 is 6.44 µM (active).

**Q.** And the EC50 [7]?
**A.** The EC50 was 48.4 µM (active).

**Q.** What about the IC50 [8] of the same compound?
**A.** The IC50 was 1.83 µM (active).

**Q.** What about the AC50 [9] of the same compound?
**A.** Its AC50 is 2.25 µM (active).

**Q.** What about the AC50 [10] of the same compound?
**A.** Its AC50 is 1.31 µM (active).

**Q.** And the AC50 [11]?
**A.** The AC50 was 9.99 µM (active).

**Q.** And the AC50 [12]?
**A.** Its AC50 is 0.49 µM (active).

**Q.** What about the AC50 [13] of the same compound?
**A.** Its AC50 is 6.99 µM (active).

**Q.** And the AC50 [14]?
**A.** The AC50 was 6.56 µM (active).

**Q.** And the AC50 [15]?
**A.** The AC50 was 3.06 µM (active).

**Q.** What about the AC50 [16] of the same compound?
**A.** The AC50 was 3.35 µM (active).

**Q.** With `Cc1ccc(NC(=O)CSc2ncnc3ccccc23)cc1S(=O)(=O)N1CCOCC1` as the compound, how does the IC50 [17] read?
**A.** Its IC50 is > 20 µM (inactive).

**Q.** What about the IC50 [18] of the same compound?
**A.** Its IC50 is 8.72 µM (active).

**Q.** What about the IC50 [19] of the same compound?
**A.** The IC50 was > 138 µM (inactive).

**Q.** Which AC50 [14] does the source give for `NC(=O)COC(=O)CC(NC(N)=O)c1ccc(Cl)cc1` (configuration not stated) here?
**A.** Its AC50 is 28.7 µM (active).

**Q.** For `COc1cccc(NC(=O)N[C@H]2CC[C@H](CC(=O)Nc3ccc(-c4ccccc4)cc3)O[C@@H]2CO)c1`, which AC50 [15] is on record?
**A.** The AC50 was 0.479 µM (active).

**Q.** What about the AC50 [16] of the same compound?
**A.** Its AC50 is 44.3 µM (active).

**Q.** Which results are given for `Cc1nc(N2[C@H](CO)[C@H](c3ccccc3)[C@H]2CNCC2CCCCC2)sc1C`?
**A.** AC50 [20]: 1.03 µM (active); AC50 [21]: 71.2 µM (active); AC50 [22]: 1.13 µM (active); AC50 [23]: 0.595 µM (active); AC50 [24]: > 42 µM (inactive); AC50 [25]: 0.691 µM (active)

**Q.** For `C[C@H]1CN([C@@H](C)CO)S(=O)(=O)c2ccc(C#CC3CCCCC3)cc2O[C@H]1CN(C)C`, which AC50 [20] is on record?
**A.** Its AC50 is 8.69 µM (active).

**Q.** And the AC50 [21]?
**A.** The AC50 was > 100 µM (inactive).

**Q.** What about the AC50 [23] of the same compound?
**A.** Its AC50 is 4.6 µM (active).

**Q.** And the AC50 [25]?
**A.** Its AC50 is 2.42 µM (active).
